Measured values taken from patent publication US20230099837A1, “COMPOSITIONS AND METHODS FOR TREATING NEURODEGENERATIVE DISORDERS WITH RIPK1/RIPK3 INHIBITORS” (Arizona Board of Regents on Behalf of the University of …, priority 2020, published 2023).
“Also recorded” adds a separate entry of the source.

How the values were obtained:
Type in all cases: cell-based
[1] = tested on: HT-29 cells; assay: Necroptosis flow assay (Annexin V / propidium iodide staining, flow cytometry); conditions: 100 μM compound 30 min before induction with TNF-a/Z-VAD-fmk/SM-164 for 7 hours, vs DMSO
Protocol: Necroptosis was allowed to proceed for 7 hours (hrs) before Annexin V and propidium iodide staining and flow cytometry analysis (FIG. 3). Cells staining positive for either Annexin V or propidium iodide were quantified as necroptotic cells (FIG. 1F). […] Docking results from RMITC03 and RMITC09 indicate most interactions are driven through hydrophobic interactions with a few hydrogen bonds interacting with the backbone of the protein (FIG. 1D-E).
HT-29 cells were grown in DMEM (Corning 10-013-CV) with 10% FBS (HyClone SH3091003)_and incubated at 37° C. and 5% CO2. […] Necroptosis was induced with 25 ng/mL TNF-a (Prospec CYT-223), 20_μM Z-VAD-fmk (AdooQ Bioscience A12373), and 0.1 μM SM-164 (AdooQ Bioscience A15800) for 7 hours in an incubator at 37° C. and 5% CO2. HT-29 cells were trypsinized (Corning 25-053-CI) and washed with DPBS (Corning 21-031-CV) (see, Bundscherer, A. et al. Anticancer Research 33, 3201-3204 (2013)). Cells were processed and stained with Annexin V and propidium iodide as described by manufacturer's protocol in the eBioscience™ Annexin V-FITC Apoptosis Detection Kit (Invitrogen BMS500FI-500). Flow cytometry was performed with MACSQuant® Analyzer 10 and data was processed with Flowlogic™ flow cytometry analysis software.

[2] = tested on: RIPK1; assay: Western blot, total RIPK1 in HT-29 cells; conditions: 100 μM, necroptosis induced 3 hrs, normalized to b-actin
Protocol: (§1) If RMITC03 and RMITC09 are disrupting the protein-protein interactions between RIPK3 and MLKL, then the effect of such inhibition should be observed in the activation of MLKL. To test this, HT-29 cells were treated with 100 μM of each compound for 30 min before necroptosis induction. Cells were harvested after 3 hrs with RIPA buffer in order to determine amount of inhibition at each stage of the necroptotic signaling molecules. When comparing the amounts of RIPK1, RIPK3, and MLKL in DMSO treated necroptosis activated cells (T/S/Z) against non necroptosis activated cells (Non-treated samples), there is no statistically significant difference in the amounts of these proteins (FIG. 6A-B).
(§2) HT-29 cells were grown as described above and plated on a 6 well plate. After incubating overnight, cells were incubated with 100 μM of noted compounds in FIG. 3 for 30 min._Necroptosis was induced in the cells for 3 hours, as described in Necroptosis flow assay section, before harvesting with 75 μL RIPA buffer system (Santa Cruz sc-24948) containing 2 mM PMSF, 1 mM Sodium Orthovanadate, and 1% final volume of protease inhibitor. Samples were_centrifuged for 10 min at 20000×g and 4° C. […]
(§3) The secondary Anti-rabbit IgG, HRP-linked antibody (Cell Signaling Technology #7074S) was_used at a dilution of 1:1500 in PBS-T with 5% BSA. […] Data_were quantified with ImageLab™ software. […]

[3] = tested on: RIPK3; assay: Western blot, total RIPK3 in HT-29 cells; conditions: 100 μM, necroptosis induced 3 hrs, normalized to b-actin
Protocol: as §1, §2, §3

[4] = tested on: MLKL; assay: Western blot, total MLKL in HT-29 cells; conditions: 100 μM, necroptosis induced 3 hrs, normalized to b-actin
Protocol: as §1, §2, §3

[5] = tested on: Phospho-RIPK1 (Ser166); assay: Western blot, phosphorylated RIPK1 in HT-29 cells; conditions: 100 μM, necroptosis induced 3 hrs, normalized to b-actin
Excerpt: Autophosphorylation of RIPK1 at Ser166 facilitates RIPK1 kinase activity to induce cell_death (see, Meng, H. Y. et al. Proceedings of the National Academy of Sciences of the United States of America 115, E2001-E2009 (2018)). As such, phosphorylation at Ser166 was used to detect activation of necroptosis. […] Similarly, in the non-necroptosis activated on treated sample, there is also no phosphorylated RIPK1 signal. When comparing the DMSO sample to RMITC03 and RMITC09 treated samples, there is a large amount of activated phosphorylated RIPK1 with no difference between the DMSO control and RMITC03 and RMITC09 compounds.
as §2, §3

[6] = tested on: Phospho-RIPK3 (Ser227); assay: Western blot, phosphorylated RIPK3 in HT-29 cells; conditions: 100 μM, necroptosis induced 3 hrs, normalized to b-actin
Protocol: As previously reported, RIPK3 activation from necroptotic stimulus can be readily and accurately measured by phosphorylation at Ser227 (see, Chen, W. Z. et al. Journal of Biological Chemistry 288, 16247-16261 (2013)).
as §2, with “C. The supernatant was mixed with 25 μL of NuPAGE_LDS sample buffer dye 4× containing 0.1 M DTT and heated for 10 min at 90° C. SDS-PAGE_separation and membrane transfer were performed as described under the CETSA protocol.” for “C.”
as §3

[7] = tested on: Phospho-MLKL (Ser358); assay: Western blot, phosphorylated MLKL in HT-29 cells; conditions: 100 μM, necroptosis induced 3 hrs, normalized to b-actin
Protocol: RIPK3 is known to activate MLKL through phosphorylation at Ser358 for necroptotic cell death (see, Sun, L. M. et al. Cell 148, 213-227 (2012)). Therefore, the amount of phosphorylated MLKL at Ser358 was used to determine if any inhibition of MLKL activation occurred.
as §2, with “C. The supernatant was mixed with 25 μL of NuPAGE_LDS sample buffer dye 4× containing 0.1 M DTT and heated for 10 min at 90° C. SDS-PAGE_separation and membrane transfer were performed as described under the CETSA protocol.” for “C.”
as §3

Structure (SMILES) | inhibitory effect on necroptosis (cells positive for Annexin V or propidium iodide) [1] | amount of RIPK1 compared to DMSO [2] | amount of RIPK3 compared to DMSO [3] | amount of MLKL compared to DMSO [4] | phosphorylated RIPK1 (Ser166) signal compared to DMSO [5] | phosphorylated RIPK3 (Ser227) compared to DMSO [6] | phosphorylated MLKL (Ser358) compared to DMSO [7]
CC(C)S(=O)(=O)c1ccc2nccc(Nc3ccc4scnc4c3)c2c1 [GSK'872] | largest inhibition of necroptosis | no significant difference | no significant difference | no significant difference | significant decrease; also recorded: no observable phosphorylated RIPK11 signal | significant decrease; also recorded: Inhibition of activated phosphorylated RIPK3 at Ser227 | significant decrease; also recorded: lowest levels of phosphorylated MLKL
CN1C(=O)C(Cc2c[nH]c3ccccc23)NC1=S (stereo not shown) [Nec-1] |  | no significant difference | no significant difference | no significant difference | significant decrease; also recorded: no observable phosphorylated RIPK11 signal | did not completely inhibit activation of phosphorylated RIPK3 | significant decrease; also recorded: lowest levels of phosphorylated MLKL
